According to patent US8987253B2, “Compound having activity of blocking NMDA receptor channel, and pharmaceutical agent using the same” (National University Corporation Chiba University, priority 2006, dated 2015):
Where two headings read alike, the source gives them in different places.

Legend:
NR1/NR2A = NR1/NR2A (Homo sapiens, UniProt Q05586+Q12879); experiment: Channel blocking activity on NMDA receptors (NR1/NR2A) expressed on Xenopus oocytes, two electrode voltage clamp; conditions: for voltage dependence of channel blocking activity: membrane potential changed from −150 mV to +10 mV
Sequence of NR1/NR2A (Q12879 23-1464, other chains not shown): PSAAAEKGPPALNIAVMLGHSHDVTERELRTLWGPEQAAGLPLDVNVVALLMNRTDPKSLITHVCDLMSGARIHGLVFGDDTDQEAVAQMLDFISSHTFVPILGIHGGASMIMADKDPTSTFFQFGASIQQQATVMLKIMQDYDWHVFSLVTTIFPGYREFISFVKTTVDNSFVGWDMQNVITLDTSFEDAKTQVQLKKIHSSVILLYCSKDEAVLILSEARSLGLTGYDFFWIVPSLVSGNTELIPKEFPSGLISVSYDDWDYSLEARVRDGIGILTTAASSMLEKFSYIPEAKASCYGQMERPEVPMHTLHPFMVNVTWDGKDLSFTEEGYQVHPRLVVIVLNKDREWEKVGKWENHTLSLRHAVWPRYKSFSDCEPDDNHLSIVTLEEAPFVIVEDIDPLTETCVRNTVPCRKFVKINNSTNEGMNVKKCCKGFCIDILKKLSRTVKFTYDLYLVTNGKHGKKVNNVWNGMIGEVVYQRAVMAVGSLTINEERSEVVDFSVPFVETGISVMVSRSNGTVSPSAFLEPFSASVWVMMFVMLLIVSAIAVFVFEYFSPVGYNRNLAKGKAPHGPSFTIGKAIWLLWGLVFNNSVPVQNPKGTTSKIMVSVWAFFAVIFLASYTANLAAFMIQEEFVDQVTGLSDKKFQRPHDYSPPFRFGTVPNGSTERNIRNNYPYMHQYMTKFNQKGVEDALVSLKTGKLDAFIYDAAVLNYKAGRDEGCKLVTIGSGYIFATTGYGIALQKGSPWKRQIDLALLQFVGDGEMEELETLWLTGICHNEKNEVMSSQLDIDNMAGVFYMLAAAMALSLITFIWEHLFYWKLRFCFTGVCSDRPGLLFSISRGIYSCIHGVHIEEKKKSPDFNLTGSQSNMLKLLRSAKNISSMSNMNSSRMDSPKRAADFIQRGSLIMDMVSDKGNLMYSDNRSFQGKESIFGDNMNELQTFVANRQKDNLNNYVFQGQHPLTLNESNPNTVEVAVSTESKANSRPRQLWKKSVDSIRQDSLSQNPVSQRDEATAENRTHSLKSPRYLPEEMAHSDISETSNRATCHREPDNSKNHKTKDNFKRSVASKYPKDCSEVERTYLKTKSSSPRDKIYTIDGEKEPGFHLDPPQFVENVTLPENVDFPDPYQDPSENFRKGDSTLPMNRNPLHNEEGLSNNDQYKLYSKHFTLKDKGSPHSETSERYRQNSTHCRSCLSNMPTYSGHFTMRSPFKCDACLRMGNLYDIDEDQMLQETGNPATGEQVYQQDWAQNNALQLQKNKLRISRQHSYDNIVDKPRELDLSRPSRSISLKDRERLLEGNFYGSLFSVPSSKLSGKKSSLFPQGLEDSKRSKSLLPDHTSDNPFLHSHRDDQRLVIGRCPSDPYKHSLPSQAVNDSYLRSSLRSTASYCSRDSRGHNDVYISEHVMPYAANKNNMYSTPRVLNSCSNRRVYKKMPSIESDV
Experimental: The cDNA clones for NMDA receptors were used to prepare the cRNAs, which were then injected in Xenopus oocytes. The cRNAs of subtype 1 (NR1) and subtype 2 (NR2A) of NMDA receptors were injected in a Xenopus oocyte in a ratio of 1:5 (0.1 ng of NR1 and 0.5 ng of NR2A) and incubated in an incubator for several days to express the NMDA receptors on the membrane of the developed egg. The expression was confirmed by a two electrode voltage clamp system. A glass capillary was filled with a 3M potassium chloride solution for use as an electrode, which was then inserted into an egg placed in a perfusion solution to measure a change in membrane potential. The perfusion solution used comprised 100 mM sodium chloride, 2 mM potassium chloride, 1.8 mM barium chloride and 10 mM HEPES, pH 7.5.

NR2B mutant N615Q = NR2B mutant N615Q (Homo sapiens, UniProt Q05586+Q13224, N615Q); experiment: Channel blocking activity on NMDA receptor mutant NR2B N615Q expressed in eggs; assay type: cell-based; conditions: FIG. 3
Sequence of NR2B mutant N615Q (Q13224 27-1484 N615Q, other chains not shown): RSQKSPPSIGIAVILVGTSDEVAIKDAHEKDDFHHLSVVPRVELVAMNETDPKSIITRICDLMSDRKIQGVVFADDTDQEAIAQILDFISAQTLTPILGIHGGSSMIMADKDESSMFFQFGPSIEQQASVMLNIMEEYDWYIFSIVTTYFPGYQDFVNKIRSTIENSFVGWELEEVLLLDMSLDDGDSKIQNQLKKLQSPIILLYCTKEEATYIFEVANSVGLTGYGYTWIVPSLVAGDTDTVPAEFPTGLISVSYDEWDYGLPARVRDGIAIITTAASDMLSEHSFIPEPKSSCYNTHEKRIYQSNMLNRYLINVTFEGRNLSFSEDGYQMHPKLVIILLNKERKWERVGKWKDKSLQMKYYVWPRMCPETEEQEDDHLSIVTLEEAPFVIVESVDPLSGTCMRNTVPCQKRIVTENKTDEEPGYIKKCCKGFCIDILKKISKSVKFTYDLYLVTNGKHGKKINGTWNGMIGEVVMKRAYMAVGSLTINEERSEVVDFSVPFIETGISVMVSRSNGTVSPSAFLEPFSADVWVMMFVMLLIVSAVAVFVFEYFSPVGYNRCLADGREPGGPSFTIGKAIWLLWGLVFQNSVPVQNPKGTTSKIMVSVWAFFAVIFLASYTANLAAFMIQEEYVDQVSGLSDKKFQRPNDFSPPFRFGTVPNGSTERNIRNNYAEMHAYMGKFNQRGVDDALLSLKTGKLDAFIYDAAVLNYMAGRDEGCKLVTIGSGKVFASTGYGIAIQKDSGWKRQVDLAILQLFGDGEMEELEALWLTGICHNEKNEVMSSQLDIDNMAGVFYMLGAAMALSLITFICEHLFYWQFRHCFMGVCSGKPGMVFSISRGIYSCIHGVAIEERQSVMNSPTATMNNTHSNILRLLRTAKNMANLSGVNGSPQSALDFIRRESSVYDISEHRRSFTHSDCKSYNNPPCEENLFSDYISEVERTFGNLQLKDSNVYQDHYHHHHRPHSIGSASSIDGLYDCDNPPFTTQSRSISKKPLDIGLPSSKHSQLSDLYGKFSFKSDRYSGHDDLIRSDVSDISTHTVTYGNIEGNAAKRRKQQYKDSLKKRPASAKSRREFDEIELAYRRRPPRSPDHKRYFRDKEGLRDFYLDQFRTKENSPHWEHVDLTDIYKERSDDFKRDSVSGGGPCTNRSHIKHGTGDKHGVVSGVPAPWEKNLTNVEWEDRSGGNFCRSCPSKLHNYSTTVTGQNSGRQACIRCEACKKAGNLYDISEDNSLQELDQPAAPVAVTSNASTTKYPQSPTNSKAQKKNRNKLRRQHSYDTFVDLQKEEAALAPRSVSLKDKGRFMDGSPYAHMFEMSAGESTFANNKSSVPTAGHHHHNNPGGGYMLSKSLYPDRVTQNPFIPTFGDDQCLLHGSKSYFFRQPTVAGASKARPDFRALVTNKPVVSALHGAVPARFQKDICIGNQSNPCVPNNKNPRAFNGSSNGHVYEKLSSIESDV
Description: (§1) Site-directed mutagenesis was utilized to construct NMDA receptor mutants with amino acid substitutions. The NMDA receptor mutants were expressed in eggs in the same method as shown in Example 1 to investigate for channel blocking activity of AQ444. […] Other relevant amino acid residues on the NMDA receptors are shown in FIG. 4 together with their models.

NR1 mutant N616Q = experiment: Channel blocking activity on NMDA receptor mutant NR1 N616Q expressed in eggs; assay type: cell-based; conditions: FIG. 3
Description: as §1

NR1/NR2B = NR1/NR2B (Homo sapiens, UniProt Q05586+Q13224); experiment: Reactivity with NMDA receptor subtype NR1/NR2B expressed on Xenopus oocytes; assay type: cell-based; conditions: AQ444 0.1 to 30 μM, FIG. 2
Experimental: (§2) AQ444 was added to the perfusion solution to get a final concentration of 0.1 to 30 μM. […] Further, the intensities in channel blocking activity against the receptors were in the order of NR1/NR2A=NR1/NR2B=NR1/NR2D>>NR1/NR2C.

NR1/NR2C = NR1/NR2C (Homo sapiens, UniProt Q05586+Q14957); experiment: Reactivity with NMDA receptor subtype NR1/NR2C expressed on Xenopus oocytes; assay type: cell-based; conditions: AQ444 0.1 to 30 μM, FIG. 2
Sequence of NR1/NR2C (Q14957 20-1233, other chains not shown): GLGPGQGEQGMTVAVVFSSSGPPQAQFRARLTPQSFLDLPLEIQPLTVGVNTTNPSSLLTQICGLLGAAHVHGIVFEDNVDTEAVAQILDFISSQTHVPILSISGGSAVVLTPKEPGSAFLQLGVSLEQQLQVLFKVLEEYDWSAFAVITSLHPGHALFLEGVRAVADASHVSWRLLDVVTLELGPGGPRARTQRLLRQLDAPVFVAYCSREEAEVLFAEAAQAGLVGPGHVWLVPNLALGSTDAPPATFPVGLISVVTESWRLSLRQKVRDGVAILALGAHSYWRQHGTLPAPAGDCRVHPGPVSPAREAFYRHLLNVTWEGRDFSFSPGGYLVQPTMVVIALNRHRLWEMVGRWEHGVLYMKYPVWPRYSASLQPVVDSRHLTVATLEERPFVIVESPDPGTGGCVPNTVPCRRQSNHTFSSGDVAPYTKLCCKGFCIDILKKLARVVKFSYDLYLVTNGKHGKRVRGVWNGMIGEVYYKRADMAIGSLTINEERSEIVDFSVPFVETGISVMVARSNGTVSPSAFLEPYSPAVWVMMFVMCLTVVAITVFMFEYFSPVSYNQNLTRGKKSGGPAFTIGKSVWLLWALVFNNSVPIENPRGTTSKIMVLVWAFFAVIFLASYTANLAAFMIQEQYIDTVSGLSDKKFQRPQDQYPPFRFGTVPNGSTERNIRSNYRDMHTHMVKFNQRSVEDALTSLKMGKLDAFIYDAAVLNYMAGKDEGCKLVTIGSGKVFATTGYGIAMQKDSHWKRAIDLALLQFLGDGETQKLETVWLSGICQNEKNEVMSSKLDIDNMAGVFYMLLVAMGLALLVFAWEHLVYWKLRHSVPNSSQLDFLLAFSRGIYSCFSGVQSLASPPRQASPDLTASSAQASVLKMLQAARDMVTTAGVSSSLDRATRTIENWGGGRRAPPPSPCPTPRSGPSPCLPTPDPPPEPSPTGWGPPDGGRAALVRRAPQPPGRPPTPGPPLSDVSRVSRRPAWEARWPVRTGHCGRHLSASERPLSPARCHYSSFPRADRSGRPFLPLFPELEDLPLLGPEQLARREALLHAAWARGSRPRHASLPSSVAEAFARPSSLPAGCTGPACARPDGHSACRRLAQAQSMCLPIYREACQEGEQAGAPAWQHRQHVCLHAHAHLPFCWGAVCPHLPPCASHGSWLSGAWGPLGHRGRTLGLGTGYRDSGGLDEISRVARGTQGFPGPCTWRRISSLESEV
Experimental: as §2

NR1 mutant N616R = experiment: Channel blocking activity on NMDA receptor mutant NR1 N616R expressed in eggs; assay type: cell-based; conditions: FIG. 3
Description: as §1

NR2B mutant N616Q = NR2B mutant N616Q (Homo sapiens, UniProt Q05586+Q13224, N616Q); experiment: Channel blocking activity on NMDA receptor mutant NR2B N616Q expressed in eggs; assay type: cell-based; conditions: FIG. 3
Description: as §1

NR1/NR2D = NR1/NR2D (Homo sapiens, UniProt O15399+Q05586); experiment: Reactivity with NMDA receptor subtype NR1/NR2D expressed on Xenopus oocytes; assay type: cell-based; conditions: AQ444 0.1 to 30 μM, FIG. 2
Experimental: as §2

Cytotoxicity = assay type: cell-based
[1] = read-out: 50% inhibition concentration (IC50) of channel blocking activity, membrane potential clamp at −70 mV, 10 μM glycine and 10 μM glutamic acid, Xenopus oocytes

SMILES	IC50 (NR1/NR2A) [µM]	voltage dependence of channel blocking activity (NR1/NR2A)	IC50 (NR1/NR2A; [1]) [µM]	IC50 (Cytotoxicity) [µM]	other results
NCCCCNCCCCNCCCCNC(=O)c1ccc2c(c1)C(=O)c1ccccc1C2=O [AQ444, Anthraquinone Homospermine]	0.47	showed voltage dependence	–	–	order of intensity in channel blocking activity among subtypes (NR1/NR2A; NR1/NR2A, AQ444 0.1 to 30 μM, FIG. 2): NR1/NR2A=NR1/NR2B=NR1/NR2D>>NR1/NR2C; channel blocking activity on mutant (NR2B mutant N615Q): significantly decreased channel blocking activity; channel blocking activity on mutant (NR1 mutant N616Q): significantly decreased channel blocking activity; order of intensity in channel blocking activity among subtypes (NR1/NR2B): NR1/NR2A=NR1/NR2B=NR1/NR2D>>NR1/NR2C; order of intensity in channel blocking activity among subtypes (NR1/NR2C): NR1/NR2A=NR1/NR2B=NR1/NR2D>>NR1/NR2C; channel blocking activity on mutant (NR1 mutant N616R): significantly decreased channel blocking activity; channel blocking activity on mutant (NR2B mutant N616Q): significantly decreased channel blocking activity; order of intensity in channel blocking activity among subtypes (NR1/NR2D): NR1/NR2A=NR1/NR2B=NR1/NR2D>>NR1/NR2C
NCCCCNCCCCNCCCCNC(=O)N1c2ccccc2C=Cc2ccccc21 [DBA444, Dibenzoazepine Homospermine]	–	in a voltage-dependent manner	0.24	132	–
NCCCCNCCCCNCCCCNC(=O)N1c2ccccc2CCc2ccccc21 [DDBA444, Dihydrodibenzoazepine Homospermine]	–	in a voltage-dependent manner	0.072	133	–
NCCCNCCCCNCCCNC(=O)n1c2ccccc2c2ccccc21 [carbazole spermine, Carbazole Spermine]	15	–	–	–	–
CC12CC3CC(C)(C1)CC(N)(C3)C2 [memantine, reference compound]	–	–	–	147	–
